Results as given in ChEMBL document CHEMBL1201862, “PubChem BioAssay data set” (2004).
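Step 1: Grow cells in 96-well plates. Step 2: Expose to compound for 48 hours at 5 concentrations. Step 3: Interpolate endpoints linearly; if unreached, use highest concentration. Abbreviation: GI50, concentration required for 50% inhibition of growth.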 The source made the active and inactive calls. No stated cut-off is given here; in the data, active = GI50 up to about 1.1 µM and inactive = higher.

Key:
Test in all cases: inhibition of tumour cell growth, NCI panel, 48 h
TK-10 = tested on: TK-10
SK-MEL-2 = tested on: SK-MEL-2
SR = tested on: SR
SK-OV-3 = tested on: SK-OV-3
HL-60 = tested on: HL-60
SK-MEL-5 = tested on: SK-MEL-5
RPMI-8226 = tested on: RPMI-8226
MOLT-4 = tested on: MOLT-4
HT-29 = tested on: HT-29
SNB-19 = tested on: SNB-19
UO-31 = tested on: UO-31
SN12C = tested on: SN12C
HCC 2998 = tested on: HCC 2998
M14 = tested on: M14
T47D = tested on: T47D
IGROV-1 = tested on: IGROV-1
HOP-62 = tested on: HOP-62
CAKI-1 = tested on: CAKI-1
DU-145 = tested on: DU-145
LOX IMVI = tested on: LOX IMVI
786-0 = tested on: 786-0
SF-539 = tested on: SF-539
NCI-H522 = tested on: NCI-H522
NCI-H23 = tested on: NCI-H23
MDA-MB-435 = tested on: MDA-MB-435
UACC-62 = tested on: UACC-62
PC-3 = tested on: PC-3
MDA-MB-231 = tested on: MDA-MB-231
A549 = tested on: A549
RXF 393 = tested on: RXF 393
MDA-N = tested on: MDA-N
EKVX = tested on: EKVX
HCT-116 = tested on: HCT-116
SW-620 = tested on: SW-620
ACHN = tested on: ACHN
Malme-3M = tested on: Malme-3M
OVCAR-3 = tested on: OVCAR-3
A498 = tested on: A498
HCT-15 = tested on: HCT-15
SK-MEL-28 = tested on: SK-MEL-28
K562 = tested on: K562
OVCAR-4 = tested on: OVCAR-4
BT-549 = tested on: BT-549
HOP-92 = tested on: HOP-92
NCI-H226 = tested on: NCI-H226
CCRF-CEM = tested on: CCRF-CEM
NCI-H460 = tested on: NCI-H460
OVCAR-5 = tested on: OVCAR-5
UACC-257 = tested on: UACC-257
MCF7 = tested on: MCF7
Hs-578T = tested on: Hs-578T
U-251 = tested on: U-251
SF-268 = tested on: SF-268
SF-295 = tested on: SF-295
COLO 205 = tested on: COLO 205
OVCAR-8 = tested on: OVCAR-8
NCI/ADR-RES = tested on: NCI/ADR-RES
SNB-75 = tested on: SNB-75
KM12 = tested on: KM12

## CNc1ncnc2c1cnn2CCCCO
TK-10
  GI50: > 100 µM (inactive)
SK-MEL-2
  GI50: > 100 µM (inactive)
SR
  GI50: > 100 µM (inactive)
SK-OV-3
  GI50: > 100 µM (inactive)
HL-60
  GI50: > 100 µM (inactive)
SK-MEL-5
  GI50: > 100 µM (inactive)
RPMI-8226
  GI50: > 100 µM (inactive)
MOLT-4
  GI50: > 100 µM (inactive)
HT-29
  GI50: > 100 µM (inactive)
SNB-19
  GI50: > 100 µM (inactive)
UO-31
  GI50: > 100 µM (inactive)
SN12C
  GI50: > 100 µM (inactive)
HCC 2998
  GI50: > 100 µM (inactive)
M14
  GI50: > 100 µM (inactive)
T47D
  GI50: > 100 µM (inactive)
IGROV-1
  GI50: > 100 µM (inactive)
HOP-62
  GI50: > 100 µM (inactive)
CAKI-1
  GI50: > 100 µM (inactive)
DU-145
  GI50: > 100 µM (inactive)
LOX IMVI
  GI50: > 100 µM (inactive)
786-0
  GI50: > 100 µM (inactive)
SF-539
  GI50: > 100 µM (inactive)
NCI-H522
  GI50: > 100 µM (inactive)
NCI-H23
  GI50: > 100 µM (inactive)
MDA-MB-435
  GI50: > 100 µM (inactive)
UACC-62
  GI50: > 100 µM (inactive)
PC-3
  GI50: > 100 µM (inactive)
MDA-MB-231
  GI50: > 100 µM (inactive)
A549
  GI50: > 100 µM (inactive)
RXF 393
  GI50: > 100 µM (inactive)
MDA-N
  GI50: > 100 µM (inactive)
EKVX
  GI50: > 100 µM (inactive)
HCT-116
  GI50: > 100 µM (inactive)
SW-620
  GI50: > 100 µM (inactive)
ACHN
  GI50: > 100 µM (inactive)
Malme-3M
  GI50: > 100 µM (inactive)
OVCAR-3
  GI50: > 100 µM (inactive)
A498
  GI50: > 100 µM (inactive)
HCT-15
  GI50: > 100 µM
SK-MEL-28
  GI50: > 100 µM (inactive)
K562
  GI50: > 100 µM (inactive)
OVCAR-4
  GI50: > 100 µM (inactive)
BT-549
  GI50: > 100 µM (inactive)
HOP-92
  GI50: > 100 µM (inactive)
NCI-H226
  GI50: > 100 µM (inactive)
CCRF-CEM
  GI50: > 100 µM (inactive)
NCI-H460
  GI50: > 100 µM (inactive)
OVCAR-5
  GI50: > 100 µM (inactive)
UACC-257
  GI50: > 100 µM (inactive)
MCF7
  GI50: > 100 µM (inactive)
Hs-578T
  GI50: > 100 µM (inactive)
U-251
  GI50: > 100 µM (inactive)
SF-268
  GI50: > 100 µM (inactive)
SF-295
  GI50: > 100 µM (inactive)
COLO 205
  GI50: > 100 µM (inactive)

## OC(c1ccccc1)(c1cccnc1)C(O)(c1ccccc1)c1cccnc1 (stereo not given)
TK-10
  GI50: > 100 µM (inactive)
OVCAR-8
  GI50: > 100 µM (inactive)
SK-MEL-2
  GI50: > 100 µM (inactive)
SK-OV-3
  GI50: > 100 µM (inactive)
HL-60
  GI50: > 100 µM (inactive)
NCI/ADR-RES
  GI50: > 100 µM (inactive)
SK-MEL-5
  GI50: > 100 µM (inactive)
RPMI-8226
  GI50: > 100 µM (inactive)
HT-29
  GI50: > 100 µM (inactive)
SNB-19
  GI50: > 100 µM (inactive)
UO-31
  GI50: > 100 µM (inactive)
SN12C
  GI50: > 100 µM (inactive)
SNB-75
  GI50: > 100 µM (inactive)
M14
  GI50: > 100 µM (inactive)
T47D
  GI50: > 100 µM (inactive)
IGROV-1
  GI50: > 100 µM (inactive)
CAKI-1
  GI50: > 100 µM (inactive)
DU-145
  GI50: > 100 µM (inactive)
786-0
  GI50: > 100 µM (inactive)
SF-539
  GI50: > 100 µM (inactive)
NCI-H522
  GI50: 6.97 µM (inactive)
NCI-H23
  GI50: > 100 µM (inactive)
MDA-MB-435
  GI50: > 100 µM (inactive)
UACC-62
  GI50: > 100 µM (inactive)
PC-3
  GI50: > 100 µM (inactive)
MDA-MB-231
  GI50: > 100 µM (inactive)
A549
  GI50: > 100 µM (inactive)
RXF 393
  GI50: > 100 µM (inactive)
MDA-N
  GI50: > 100 µM (inactive)
EKVX
  GI50: > 100 µM (inactive)
HCT-116
  GI50: > 100 µM (inactive)
SW-620
  GI50: > 100 µM (inactive)
ACHN
  GI50: > 100 µM (inactive)
Malme-3M
  GI50: > 100 µM (inactive)
HCT-15
  GI50: > 100 µM
K562
  GI50: > 10 µM (inactive)
BT-549
  GI50: > 100 µM (inactive)
HOP-92
  GI50: > 100 µM (inactive)
NCI-H226
  GI50: 69.7 µM (inactive)
KM12
  GI50: > 100 µM (inactive)
CCRF-CEM
  GI50: > 100 µM (inactive)
NCI-H460
  GI50: > 100 µM (inactive)
OVCAR-5
  GI50: > 100 µM (inactive)
UACC-257
  GI50: > 100 µM (inactive)
MCF7
  GI50: > 100 µM (inactive)
Hs-578T
  GI50: > 100 µM (inactive)
U-251
  GI50: > 100 µM (inactive)
SF-268
  GI50: > 100 µM (inactive)
SF-295
  GI50: > 100 µM (inactive)
COLO 205
  GI50: > 100 µM (inactive)
